{
  "source": "patent US9932522B2",
  "about": "“Electrochromic compound, electrochromic composition, display element, and dimming element” (Ricoh Company, Ltd., priority 2014, dated 2018)",
  "experiment": "Solubility evaluation of electrochromic compound",
  "conditions": "dissolved to saturation, filtered through 0.5 μm PTFE filter, residue weighed; for Solubility, solvent TFP: 2,2,3,3-tetrafluoropropanol (TFP); for Solubility, solvent DMF: N,N-dimethylformamide (DMF)",
  "description": "The residue was filtered with a PTFE filter having the average pore diameter of 0.5 μm, and the solvent was dried under the reduced pressure. Then, the residue was weight to calculate an amount of the solute dissolved in each solvent.",
  "data": [
    {"smiles": "O=P(O)(O)CCCCCCCC[n+]1ccc(-c2ccc(-c3nc(-c4ccccc4)nc(-c4ccccc4)n3)cc2)cc1.[Br-]", "note": "[Compound 5b]", "values": [
      {"measurement": "Solubility, solvent TFP", "value": "A (the solubility of 5% by mass or greater was attained relative to each solvent)"},
      {"measurement": "Solubility, solvent DMF", "value": "A (the solubility of 5% by mass or greater was attained relative to each solvent)"}
    ]},
    {"smiles": "O=P(O)(O)CCCCCCCC[n+]1cccc(-c2ccc(-c3cccs3)cc2)c1", "note": "[Compound 12b]", "values": [
      {"measurement": "Solubility, solvent TFP", "value": "A (the solubility of 5% by mass or greater was attained relative to each solvent)"},
      {"measurement": "Solubility, solvent DMF", "value": "A (the solubility of 5% by mass or greater was attained relative to each solvent)"}
    ]},
    {"smiles": "O=P(O)(O)CCCCCCCC[n+]1ccc(-c2ccc(-c3cncs3)cc2)cc1.[Br-]", "note": "[Compound 2b]", "values": [
      {"measurement": "Solubility, solvent TFP", "value": "A (the solubility of 5% by mass or greater was attained relative to each solvent)"},
      {"measurement": "Solubility, solvent DMF", "value": "A (the solubility of 5% by mass or greater was attained relative to each solvent)"}
    ]},
    {"smiles": "O=P(O)(O)CCCCCCCC[n+]1ccc(-c2ccc(-c3nccs3)cc2)cc1.[Br-]", "note": "[Compound 3b]", "values": [
      {"measurement": "Solubility, solvent TFP", "value": "A (the solubility of 5% by mass or greater was attained relative to each solvent)"},
      {"measurement": "Solubility, solvent DMF", "value": "A (the solubility of 5% by mass or greater was attained relative to each solvent)"}
    ]},
    {"smiles": "O=P(O)(O)CCCCCCCC[n+]1ccc(-c2ccc(-c3cccs3)cc2)cc1.[Br-]", "note": "[Compound 1b]", "values": [
      {"measurement": "Solubility, solvent TFP", "value": "A (the solubility of 5% by mass or greater was attained relative to each solvent)"},
      {"measurement": "Solubility, solvent DMF", "value": "A (the solubility of 5% by mass or greater was attained relative to each solvent)"}
    ]},
    {"smiles": "O=P(O)(O)CCCCCCCC[n+]1ccc(-c2ccc(-c3ncccn3)cc2)cc1.[Br-]", "note": "[Compound 6b]", "values": [
      {"measurement": "Solubility, solvent TFP", "value": "A (the solubility of 5% by mass or greater was attained relative to each solvent)"},
      {"measurement": "Solubility, solvent DMF", "value": "A (the solubility of 5% by mass or greater was attained relative to each solvent)"}
    ]},
    {"smiles": "COc1nc(OC)nc(-c2ccc(-c3cc[n+](CCCCCCCCP(=O)(O)O)cc3)cc2)n1.[Br-]", "note": "[Compound 4b]", "values": [
      {"measurement": "Solubility, solvent TFP", "value": "A (the solubility of 5% by mass or greater was attained relative to each solvent)"},
      {"measurement": "Solubility, solvent DMF", "value": "A (the solubility of 5% by mass or greater was attained relative to each solvent)"}
    ]}
  ]
}
